How the values were obtained:
[1] = test system: female Syrian golden hamsters; assay: post-coital-post-implantation antifertility activity, s.c., hamsters; assay type: in vivo, Syrian golden hamster; conditions: Mesocricetus auratus, sc, sesame oil containing 20% benzyl benzoate, daily for 5 days (days 4-8 of pregnancy), autopsy day 14, read-out: ED50 (100% activity, absence of live fetuses, in 50% of the animals)
Protocol: (§1) Representative experiments for assessing antifertility activity were carried out with female Syrian golden hamsters weighing 100 to 130 g. The animals were mated and the presence of sperm in the vagina was taken as evidence of mating. The day sperm was detected was considered day one of pregnancy, since in our laboratories and those of other investigators 90 to 100% of animals that mate as evidenced by vaginal sperm are pregnant.
(§2) Pregnancy was later confirmed at the time of autopsy by presence of fetuses or implantation sites in the uterus. Even if an animal aborts the fetus, implantation scars still remain as evidence that the animal has been pregnant. […] The animals were autopsied on day 14 of pregnancy and the uteri were examined for evidence of pregnancy (implantation sites, fetal resorptions or live fetuses), hemorrhage, and evidence of abnormalities of the uterus, placenta or fetuses. A compound was considered to be active if there was a reduction of live fetuses in at least 60% of the treated animals and the presence of implantation sites proves the animal to have been pregnant.
The compounds were then studied for dose-activity relationships and the corresponding ED50 values i.e., 100% activity (absence of live fetuses) in 50% of the animals, were also determined. The following Table reports the ED50 values of some representative compounds of the invention: […]

[2] = test system: female Sprague-Dawley rats; assay: anti-reproductive activity, s.c., rats; assay type: in vivo, Sprague-Dawley rat; conditions: Rattus norvegicus, sc, five consecutive days from day 6 of pregnancy, autopsy day 16
Protocol: The same criteria and experimental conditions as above were also applied when the anti-reproductive activity of the compounds of the invention was investigated in other animal species such as, for instance, rats, dogs, monkeys and baboons.
In representative experiments, female Sprague-Dawley rats weighing from 200 to 300 g. were treated subcutaneously with a dosage of 20 mg/kg of the compound to be tested, dissolved in sesame oil containing 20% of benzyl benzoate, for five consecutive days starting from day 6 of pregnancy.

[3] = test system: hamsters; assay: antifertility activity by oral route, hamsters; assay type: in vivo, hamster; conditions: Mesocricetus auratus, p.o.
Protocol: as §1, §2
The compounds were then studied for dose-activity relationships and the corresponding ED50 values i.e., 100% activity (absence of live fetuses) in 50% of the animals, were also determined. The following Table reports the ED50 values of some representative compounds of the invention:
Favorable results were also obtained by administering the compounds of the invention by oral route. The experiments for assessing this property were carried out on hamsters following the same procedures as above, with the obvious exception that the compounds were administered orally instead of subcutaneously.

[4] = test system: hamsters; assay: antifertility activity by intravaginal route, hamsters; assay type: in vivo, hamster; conditions: Mesocricetus auratus

Row | SMILES | ED50 [1] [mg/kg] | ED50 [2] [mg/kg] | ED50 [3] [mg/kg] | ED50 [4] [mg/kg]
1 | c1ccc(-c2ccc(-c3nc4c5ccccc5ccn4n3)cc2)cc1 [Example 1, 2-[(1,1'-Biphenyl)-4-yl]-1,2,4-triazolo[5,1-a]isoquinoline] | 0.015 | 0.55 | 0.2 | ~0.2
2 | c1ccc(-c2ccc(-c3nc4n(n3)Cc3ccccc3-4)cc2)cc1 [Example 4, 2-[(1,1'-Biphenyl)-4-yl]-5H-1,2,4-triazolo[5,1-a]isoindole] | 0.7 | – | – | –
3 | c1ccc(-c2ccc(-c3nc4n(n3)CCc3ccccc3-4)cc2)cc1 [Example 3, 2-[(1,1'-Biphenyl)-4-yl]-5,6-dihydro-1,2,4-triazolo[5,1-a]isoquinoline] | 0.05 | – | 0.5 | –
4 | c1ccc(-c2ccc(-c3cn4ccc5ccccc5c4n3)cc2)cc1 [Example 6, 2-[(1,1'-Biphenyl)-4-yl]-imidazo[2,1-a]isoquinoline] | 0.02 | – | 0.3 | –

Source: patent US4275066A, “Antireproductive tricyclic ortho-fused nitrogen containing compounds” (Gruppo Lepetit S.p.A., priority 1979, dated 1981)
